melting point [°C] | SMILES
128 to 130 | CCC(C)(C)c1ccc(OCCCC(=O)Nc2ccc(OC)c(NC(=O)CC(=O)C3(C)COC(C)(C)OC3)c2)c(C(C)(C)CC)c1
243 to 244 | CC(=O)N1CC=C(c2cc3c(cc2F)c(=O)c2c(=O)[nH]sc2n3C2CC2)CC1
180 to 182 | N=C(N)NCc1ccc(OCCC2Oc3ccccc3N(Cc3ccccc3Cl)C2=O)cc1 (stereo not given)
184 to 186 | COc1ccccc1Nc1nc2c(-c3ccc(C(F)(F)F)cc3)cccn2n1
155 to 160 | COc1cc(Nc2c(C#N)cnc3cc(-c4ccc(CN(CCO)CCO)o4)ccc23)c(Cl)cc1Cl
152 to 154 | CC(=O)O[C@@H]1[C@H](OC(C)=O)[C@@H](C)O[C@H]1n1c(Br)nc2c(Br)c(Cl)c(Cl)cc21
180 | CCCCCCCCCCCCn1c(=O)c(=O)[nH]c2c3ccccc3ccc21
223 to 225 | NC(=O)N1C[C@@H](O)[C@H](Oc2ccc(Cl)cc2)C1 (relative stereo)
40 to 44 | COc1ccc2cc([C@H](C)C(=O)NOCC(=O)NCCO[N+](=O)[O-])ccc2c1
84 to 85 | CC(CSc1nn(-c2ccccc2)c2c1CCC2)C(=O)O (stereo not given)
113 to 115 | Cc1cnc(-n2ccc(C(F)(F)F)n2)nc1Oc1csc(C(F)(F)F)c1
49 to 51 | COc1ccsc1C(=O)C=C(C)C
195 to 200 | O=C(O)c1ccc(CNC=C2C(=O)c3ccccc3OC2c2ccccc2)cc1 (stereo not given)
286 | O=C1NS(=O)(=O)c2cc(O)cc(O)c21
138 to 141 | O=C1CCCN1CCCn1cnc2cnc3cc(-c4ccccc4)ccc3c21
225 to 227 | OCC1Cc2c([nH]c3ccccc23)CN1C(=S)S (stereo not given)
54 | COC(=O)CCCc1cc2cc(Cl)ccc2n1S(=O)(=O)c1ccc(S(=O)(=O)N2CCOCC2)cc1
160 | COc1ccncc1-c1nc2c(N[C@H]3[C@@H](C(N)=O)[C@@H]4C=C[C@H]3C4)c(Br)cnc2[nH]1
265 to 270 | Cc1c(C(=O)O)nc2c(=O)[nH]c3cc(C(F)(F)F)c(-n4cccc4)cc3n12
79 to 81 | C[C@](Cc1c[nH]c2ccccc12)(NC(=O)O)C(=O)NCCC1CCCCC1
264 to 265 | CC(=O)OCC1CCn2c(c(C3=C(c4c[nH]c5ccccc45)C(=O)NC3=O)c3ccccc32)C1 (stereo not given)
89 to 90 | FC(F)(F)c1nc(N=C(Cl)c2cccc(Cl)c2)sc1Cl
118 to 120 | CC(=O)NNc1ccc(NCc2ccccc2)cc1
208 to 210 | CC(=O)N[C@@H]1c2cnccc2OC(C)(C)[C@H]1O (relative stereo)
167 to 168 | CC1(C)CC(=O)CC(C)(P(=O)(O)O)C1 (stereo not given)
212 to 213 | CC1(C)OC(=O)C(=C(Nc2ccccc2Br)N2CCOCC2)C(=O)O1

melting point [°C] | SMILES
147 to 149 | COCc1nc(NC(=O)NS(=O)(=O)c2ccccc2C(=O)OC)nc(SC)n1
61 to 61.5 | CCOC(=O)c1c(C(C)C)csc1N
176 to 177 | Cc1cc(-c2ccc(C#N)cc2)sc1C(=O)N[C@H](C)[C@](O)(Cn1cncn1)c1ccc(F)cc1F
110 to 112 | CON(C(=O)c1cn(C)nc1C(F)F)C(C)Cc1c(Cl)cc(Cl)cc1Cl (stereo not given)
112 to 113 | COC(=O)CCc1nc(-c2cc3ccccc3o2)no1
284 | O=C1NN=C(c2ccc3c(c2)C2(CCCS2)C(=O)N3)CS1 (stereo not given)
178 | O=C(CCCc1ccccc1)N[C@@H](Cc1ccccc1)C(=O)O
134 to 135 | CC1CCN(C)c2nc(O)ccc21 (stereo not given)
126 to 127 | CNc1cc(S(=O)(=O)c2ccc(N)cc2)cc(C)n1
253 to 255 | Cc1nc(-n2ccc(NCc3ccccc3)cc2=O)sc1C(=O)NCc1ccccc1
121 to 127 | CC(C)(C)NC(=O)[C@@H]1CCCN1C(=O)[C@@H](O)[C@H](Cc1ccccc1)NC(=O)[C@H](CC(N)=O)NC(=O)COc1ccc(NC(=O)CN2CCOCC2)cc1
154 to 157 | CCOc1cc(N)c(Cl)cc1C(=O)[NH+]([O-])CC1CN(Cc2ccccc2Cl)CCO1 (stereo not given)
119 to 121 | O=C(NC1CCCCC1)Oc1ccccc1-c1ccccc1
140 to 143 | CC(C)(C)COc1ccc(N(CC(=O)O)C(=O)c2cccn2-c2ccc(F)cc2)cc1C#N
36 to 37 | CCCC(=O)NCCCc1cccc(OCC2CC2)c1
77 to 78 | COC(=O)CCc1ccc(C(=O)Cc2ccccc2)cc1
112 | O=C(O)CCCc1nc(NCc2ccc3c(c2)OCO3)c2cc(Cl)sc2n1
233 to 235 | CC(=O)OC1=C(c2ccc(C)cc2)Sc2cc(C)ccc2NC1=O
218 to 219 | COc1ccc(CNc2nnc(-n3ccc(=O)cc3)c3ccc(C#N)cc23)cc1Cl
149 to 150 | Cc1c(C)c2c(c(C)c1N)C(c1ccc(-c3ccccc3)cc1)CO2 (stereo not given)
165 to 168 | O=C1C2CCCCC2C(=O)N1c1ccncc1 (stereo not given)
105 | CC1(O)c2ccccc2CCC1OS(=O)(=O)CC12CCC(CC1=O)C2(C)C (stereo not given)
204 to 206 | O[C@H]1CC[C@H](n2cnc(-c3ccc(F)cc3)c2-c2ccnc(Nc3ccccc3)n2)CC1
77 to 78 | COc1ccc(CC(C)(C)NC(=O)N(C)O)cc1OC
199 to 201 | COc1ccc(C=C2C(=O)c3cc(O)ccc3OC2c2ccc(OC)cc2)cc1 (stereo not given)

More lines, now with the values behind:

SMILES | melting point [°C]
CCCCCCCCCC[C@@H]1C(=O)OC(c2ccccc2)=C[C@@H]1C(=O)OC | 108 to 111
C#CCCC(O)=C(C#N)C(=O)Nc1ccc(Cl)c(C)c1 | 147
Cc1cccc(C(C)C)c1NC(=O)Nc1c(-c2ccccc2F)c2cc(Cl)ccc2oc1=O | 217 to 218
O=C(O)c1ccccc1OCCN1CCC(c2cn(Cc3ccc(Cl)s3)c3ccccc23)CC1 | 178 to 179
CCCN(CCC)Cc1csc(-c2ncn3c2[C@@H]2CCCN2C(=O)c2c(Cl)cccc2-3)n1 | 213 to 214
CCn1c2ccc(C=O)cc2c2cc(C=C(c3ccccc3)c3ccccc3)ccc21 | 166 to 167
O=C(Cl)N(c1ccc(F)cc1)c1ccc(F)cc1 | 53 to 54
N#Cc1cnc(-c2ccncc2)nc1N | 253 to 255
COc1c(Nc2ncc(Cl)c(Nc3ccccc3S(=O)(=O)N(C)C)n2)ccc2c1CCC(NCC(F)F)CC2 (stereo not given) | 118
O=C1Nc2cccc(Br)c2C(=O)N2CC[C@@H]12 | 182 to 183
CCCS(=O)(=O)Oc1c(C(=O)c2nn(C)c(=O)n(-c3ccccc3)c2=O)cnn1C(C)C | 51 to 53
Nc1ncc2c(n1)-c1ccccc1C(c1ccc(Cl)c(Cl)c1)C2 (stereo not given) | 159 to 160
O=C(O)c1ccc(Cl)c2c1[nH]c1ccccc12 | 280
CCCNC(=O)C1C=C2CC=C(OC)C=C2N1CCNC(C)=O (stereo not given) | 127 to 128
CCS(=O)(=O)c1ccc(Oc2cc(Cl)c(Cl)cc2Cl)nc1 | 120 to 122
C1=Cc2ccccc2NN=C1 | 183 to 184
CCCCC(=O)N(C(=O)NC(=O)c1ccccc1[N+](=O)[O-])c1ccc(Oc2ncc(Cl)cn2)c(C)c1 | 69 to 75
O=C1C2=C(SCCN2)C2CSCCN12 (stereo not given) | 142
CC1(c2ccccc2)Nc2ccc3c(c2N1)C(=O)c1ccccc1C3=O (stereo not given) | 368 to 371
CCCCCCCCCNC(=O)Nc1ccccc1C(=O)NC1CCN(C(c2ccccc2)c2ccccc2)CC1 | 149 to 150
CCCCCCCCCCCCCCCCC[C@H](C[C@H](O)[C@H](CC)C(=O)O)OCc1ccccc1 | 62 to 63.5
CCOC(=O)c1cc(-n2c(=O)[nH]c(C)c(C)c2=O)ccc1Cl | 202 to 204
CN(C)C=CC(=O)c1c[nH]c2ccccc12 | 239 to 245
CC(=NNC(=O)c1cccc([N+](=O)[O-])c1O)c1ccccc1 | 163 to 168
CCCCCc1c(C(C)C)nc(C(C)C)c(CO)c1-c1cccc(C)c1 | 88 to 90

SMILES | melting point [°C]
COc1ccccc1C(=O)NCCc1ccc(CC(=O)O)cc1 | 154 to 155
CC(C)(C)c1nnc(-c2nn(-c3ccc(F)cc3F)c3c2C2CCC3C2)s1 (stereo not given) | 109 to 111
N/C(=C1/Sc2ccccc2C1=O)c1ccccc1N | 186 to 187
CC(=O)C1CCC2C3CC(C)C4CC(O)CCC4(C)C3C(O)CC12C (stereo not given) | 211 to 213
COCc1cccc2oc(C(=O)O)c(C)c12 | 164 to 166
CC1(C)COC(=O)OC1 | 108 to 109
Cc1snc(O)c1C(N)=O | 248 to 250
O=c1oc2cc(O)c(O)cc2c(O)c1C1=CCOc2oc3ccccc3c(=O)c21 | 258 to 260
N#Cc1nn(-c2c(Cl)cc(C(F)(F)F)cc2Cl)cc1C=C(F)F | 75 to 77
Cn1ncnc1COc1nc2c(cc1-c1ccc(F)cc1)nnn2-c1ccccc1F | 142 to 145
CCOCn1nccc1C(=O)c1ccc(OCC(=O)O)c(Cl)c1Cl | 148 to 149
CC(C)N(c1ccc(C#N)cc1[N+](=O)[O-])S(=O)(=O)c1ccc(Cl)cc1 | 168
O=C1CCCN1C1=CC(CF)(CF)Oc2ccc(C(F)(F)C(F)(F)F)cc21 | 104 to 105
COc1ccc2c(c1)CCN=C2C | 206 to 207
CC(=O)N(C)C[C@H]1CN(c2ccc(N3CCC(=CC#N)CC3)c(F)c2)C(=O)O1 | 128 to 132
Cc1c(C=NO)c2cc(F)ccc2n1-c1ccc(O)cc1 | 162 to 163
CCOC(=O)c1[nH]c(C)c(-c2ccc(F)cc2)c1C | 174 to 175
NC(=O)CNc1ncccc1[N+](=O)[O-] | 250 to 251
CS(=O)(=O)NC1CCN(c2ccc(C#N)c3ccccc23)C1 (stereo not given) | 128 to 129
CC(C)c1cc(C(C)C)c(CC(=O)NS(=O)(=O)Oc2c(C(C)C)cc(NCCO)cc2C(C)C)c(C(C)C)c1 | 149 to 152
CC(C)C1COCc2nc3c(N)nc4ccc(O)cc4c3n21 (stereo not given) | 208 to 210
NC(=O)c1ccccc1NCCC12CCCN1CCC2 | 145 to 147
NC(=O)c1ccc(N2CCN(Cc3cn4cc(Cl)ccc4n3)CC2)c(F)c1 | 253 to 255
CCC12CCC3=C(CC(C)c4cc(OC)ccc43)C1CCC21OCCO1 (stereo not given) | 122 to 124

Source: a melting point compilation (Tetko et al.; mined from patent text by program, amines drawn as free bases though some values may be those of a salt)
